Laboratory results: ChEMBL document CHEMBL1255271, “Determinants of in vitro drug susceptibility testing of Plasmodium vivax” (Antimicrob Agents Chemother, 2008)

What was measured:
Plasmodium vivax [1] = assay: Antimicrobial activity against Plasmodium vivax trophozoites measured after 30 hrs by microscopy; type: functional, organism-based
Plasmodium vivax [2] = assay: Antimicrobial activity against Plasmodium vivax at the ring stage measured within 30 hrs by microscopy; type: functional, organism-based
Plasmodium vivax [3] = assay: Antimicrobial activity against Plasmodium vivax trophozoites measured within 30 hrs by microscopy; type: functional, organism-based
Plasmodium vivax [4] = assay: Antimicrobial activity against Plasmodium vivax at the ring stage measured after 30 hrs by microscopy; type: functional, organism-based
Plasmodium vivax [5] = assay: Antimicrobial activity against Plasmodium vivax trophozoites by microscopy; type: functional, organism-based
Plasmodium vivax [6] = assay: Antimicrobial activity against Plasmodium vivax at the ring stage by microscopy; type: functional, organism-based
Plasmodium vivax [7] = assay: Antimicrobial activity against fast-growing synchronous Plasmodium vivax by microscopy
Plasmodium vivax [8] = assay: Antimicrobial activity against Plasmodium vivax at the trophozoites by microscopy treated during ring stage; type: functional, organism-based
Plasmodium vivax [9] = assay: Antimicrobial activity against slow-growing synchronous Plasmodium vivax by microscopy
Plasmodium falciparum [10] = assay: microbe, parasite or virus in culture
Description: Antimicrobial activity against Plasmodium falciparum trophozoites by microscopy treated during ring stage

Plasmodium falciparum [11] = assay: microbe, parasite or virus in culture; remark: listed apart in the source
Description: Antimicrobial activity against Plasmodium falciparum at the ring stage by microscopy

| Compound | IC50 (Plasmodium vivax [1]) [nM] | IC50 (Plasmodium vivax [2]) [nM] | IC50 (Plasmodium vivax [3]) [nM] | IC50 (Plasmodium vivax [4]) [nM] | IC50 (Plasmodium vivax [5]) [nM] | IC50 (Plasmodium vivax [6]) [nM] | IC50 (Plasmodium vivax [7]) [nM] | IC50 (Plasmodium vivax [8]) [nM] | IC50 (Plasmodium vivax [9]) [nM] | IC50 (Plasmodium falciparum [10]) [nM] | IC50 (Plasmodium falciparum [11]) [nM] |
| --- | --- | --- | --- | --- | --- | --- | --- | --- | --- | --- | --- |
| CCCCN(CCCC)CC(O)c1cc(Cl)cc2c1-c1ccc(Cl)cc1/C2=C/c1ccc(Cl)cc1 (stereo not given) [LUMEFANTRINE] | 32.9 | 24.8 | 14.6 | 37.6 |  |  |  |  |  |  |  |
| CCN(CC)CCCC(C)Nc1ccnc2cc(Cl)ccc12 (stereo not given) [CHLOROQUINE] | 298 | 475 | 539 | 59.8 | 478 | 55.2 | 435 | 2810 | 39.9 |  |  |
| Clc1ccc2c(N3CCN(CCCN4CCN(c5ccnc6cc(Cl)ccc56)CC4)CC3)ccnc2c1 [PIPERAQUINE] | 29.1 | 31.2 | 22.9 | 14.6 |  |  |  |  |  |  |  |
| OC(c1cc(C(F)(F)F)nc2c(C(F)(F)F)cccc12)C1CCCCN1 (stereo not given) [MEFLOQUINE] | 7.27 | 22.2 | 17.4 | 7.26 | 17 | 6.39 |  | 12.5 |  | 4.6 |  |
| CCN(CC)Cc1cc(Nc2ccnc3cc(Cl)ccc23)ccc1O | 16.5 | 23.4 | 18.9 | 7.85 | 22.1 | 10 |  | 24.2 |  | 8.2 | 15.2 |
| C[C@H]1[C@H](OC(=O)CCC(=O)O)O[C@@H]2O[C@@]3(C)CC[C@H]4[C@H](C)CC[C@@H]1[C@@]24OO3 [ARTESUNATE] | 1.2 | 1.39 | 1.6 | 0.83 | 1.61 | 0.86 |  |  |  |  |  |
